System: Plasmodium falciparum
Experiment: Antiplasmodial activity against Plasmodium falciparum F32-Tanzania after 48 hrs

SMILES | IC50 [µM]
C=Cc1cccc2c1N(CCCCCCCCCCC)Cc1cc3c(cc1-2)OCO3 | 7.4
CCC(=O)O[C@H]1[C@H]2c3cc4c(cc3CN3CCC(=C[C@@H]1OC(=O)CC)[C@H]23)OCO4 | 2.7
C=Cc1cccc2c1N(C)Cc1cc(OC(C)=O)c(OC(C)=O)cc1-2 | 0.9
C=Cc1cccc2c3cc4c(cc3c(=O)n(C)c12)OCO4 | > 100
CC(=O)O[C@@H]1[C@@H](OC(C)=O)[C@H](O)[C@@]2(O)CCN3C(=O)c4cc5c(cc4[C@H]1[C@H]32)OCO5 | > 100
CC(=O)O[C@H]1[C@H]2c3cc4c(cc3C(=O)N3CCC(=C[C@@H]1OC(C)=O)[C@H]23)OCO4 | > 100
C=Cc1cccc2c1N(C)Cc1cc3c(cc1-2)OCO3 | 11.3
C=Cc1cccc2c1N(CCCC)Cc1cc(OC(C)=O)c(OC(C)=O)cc1-2 | 0.8
C=Cc1cccc2c1N(C)Cc1cc(OC(=O)CCCCCCCCCCC)c(OC(=O)CCCCCCCCCCC)cc1-2 | 47
CC(=O)O[C@H]1[C@H]2c3cc4c(cc3CN3CCC(=C[C@@H]1OC(C)=O)[C@H]23)OCO4 | 0.26
CCc1cccc2c1N(C)Cc1cc3c(cc1-2)OCO3 | > 100
C=Cc1cccc2c1N(CC)Cc1cc3c(cc1-2)OCO3 | 86
CC(=O)Oc1cc2c3c(c1)c1cc4c(cc1c(=O)n3CC2)OCO4 | 9.2
C=Cc1cccc2c1N(CCCC)Cc1cc3c(cc1-2)OCO3 | 9.7
CC(=O)O[C@H]1[C@H]2c3cc4c(cc3C(=O)N3CCC(=C[C@@H]1O)[C@H]23)OCO4 | > 100
C=Cc1cccc2c3cc4c(cc3c(=O)n(CC)c12)OCO4 | > 100
O[C@H]1[C@H]2c3cc4c(cc3CN3CCC(=C[C@@H]1O)[C@H]23)OCO4 [LYCORINE] | 0.13
O=C1C=C2CCN3Cc4cc5c(cc4[C@H]([C@@H]1O)[C@@H]23)OCO5 | 14.7
C=Cc1cccc2c1N(C)Cc1cc(OC)c(OC)cc1-2 | 12.4
CC(=O)O[C@H]1[C@H]2c3cc4c(cc3CN3CCC(=C[C@@H]1O)[C@H]23)OCO4 | 0.9
C=Cc1cccc2c1N(C)Cc1cc(O)c(O)cc1-2 | 1.1
CCC(C)C(=O)O[C@H]1[C@H]2c3cc4c(cc3CN3CCC(=C[C@@H]1OC(=O)C(C)CC)[C@H]23)OCO4 (some centres not stated) | 0.6
CCCCN1Cc2cc3c(cc2-c2cccc(CC)c21)OCO3 | 7.4
CC(=O)Oc1cc2c(cc1OC(C)=O)[C@@H]1[C@H](O)[C@@H](OC(C)=O)C=C3CCN(C2)[C@H]31 | 8.4
C=Cc1cccc2c3cc4c(cc3c(=O)n(CCCC)c12)OCO4 | > 100
CC(=O)O[C@H]1[C@H]2c3cc4c(cc3CN3CC[C@@H](C[C@@H]1OC(C)=O)[C@H]23)OCO4 | 34.8
C=Cc1cccc2c1N(CCCC)Cc1cc(O)c(O)cc1-2 | > 100

— ChEMBL document CHEMBL1177653, “Synthesis and antiplasmodial activity of lycorine derivatives” (Bioorg Med Chem, 2010)
